Experimental data taken from patent US20230081720A1, “MCL-1 INHIBITOR ANTIBODY-DRUG CONJUGATES AND METHODS OF USE” (NOVARTIS AG, priority 2019, published 2023).
Residue numbers refer to the chain shown, from its start. Like-named read-outs stand apart in the source and are kept apart here.

Assays:
[1] = tested on: NCI-H929 multiple myeloma cell line; assay: In vitro cytotoxicity, Microculture Tetrazolium Assay (MTT); assay type: cell-based; details: Homo sapiens; NCI-H929 cells, 48 hours
Protocol: Cytotoxicity studies were carried out on the NCI-H929 multiple myeloma cell line. The cells were distributed onto microplates and exposed to the test compounds for 48 hours.

[2] = biological target: Mcl-1 protein (Homo sapiens, UniProt Q07820); assay: Inhibition of Mcl-1 by fluorescence polarization (FP); assay type: binding; details: fluorescein-labelled ligand 1 nM, Mcl-1 protein 5 nM
Protocol: The relative binding potency of each compound was determined via Fluorescence Polarization (FP).
An 11-point serial dilution of each compound was prepared in DMSO and 2 PI transferred into flat bottomed, low binding, 384-well plate (final DMSO concentration 5%). 38 μl of buffer (10 mM 4-(2-hydroxyethyl)-1-piperazineethanesulfonic acid [HEPES], 150 mM NaCl, 0.05% Tween 20, pH 7.4), containing the fluorescein-labelled ligand (final concentration 1 nM) and Mcl-1 protein (final concentration 5 nM) was then added.

[3] = tested on: EOL-1; assay type: cell-based
Protocol: (§1) Cell lines were cultured in media that is optimal for their growth at 5% CO2, 37° C. in a tissue culture incubator. Prior to seeding for the proliferation assay, the cells were split at least 2 days before the assay to ensure optimal growth density. […] Cell viability and cell density were determined using a cell counter (Vi-Cell XR Cell Viability Analyzer, Beckman Coulter). […] Cells were seeded at a density of 1,000 cells per well in 45 μL of standard growth media. Plates were incubated at 5% CO2, 37° C. overnight in a tissue culture incubator. […] Each drug concentration was tested in quadruplets. […] Plates were incubated at room temperature for 10 minutes to stabilize luminescent signals prior to reading using a luminescence reader (EnVision Multilabel Plate Reader, PerkinElmer). To evaluate the effect of the drug treatments, luminescent counts from wells containing untreated cells (100% viability) were used to normalize treated samples.

[4] = tested on: NOMO-1; assay type: cell-based
Protocol: as §1

[5] = tested on: MONO-MAC-1; assay type: cell-based; details: CD74 ADC with the named linker-payload, 5 days
Protocol: as §1

[6] = biological target: T1, soluble human CD74 (human, UniProt P04233-2 73-232, limits assumed); assay: SPR, Biacore 8K; IgG captured by anti-IgG Fc, soluble CD74 as analyte; 1:1 model, apparent kinetics
T1 construct: CD74' flowed over as analyte; also called human CD74 protein
T1 sequence (looked up): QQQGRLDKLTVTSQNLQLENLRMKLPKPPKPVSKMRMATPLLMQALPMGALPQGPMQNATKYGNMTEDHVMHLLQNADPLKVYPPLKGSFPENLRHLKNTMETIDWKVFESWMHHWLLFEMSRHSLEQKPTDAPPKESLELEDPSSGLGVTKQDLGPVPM
Excerpt: Double reference subtraction was completed to generate the final data.

[7] = biological target: soluble cyno CD74 (cyno); assay: as above
[8] = CD74 ADC with the named linker-payload, 5 days
[9] = CD74 ADC with the named linker-payload, 5 days, read-out: EOL-1 IC50
[10] = CD74 ADC with the named linker-payload, 5 days, read-out: NOMO-1 IC50

soluble cyno CD74 (cyno), sequence (P04233 other isoform, or with tags, fused parts or gaps): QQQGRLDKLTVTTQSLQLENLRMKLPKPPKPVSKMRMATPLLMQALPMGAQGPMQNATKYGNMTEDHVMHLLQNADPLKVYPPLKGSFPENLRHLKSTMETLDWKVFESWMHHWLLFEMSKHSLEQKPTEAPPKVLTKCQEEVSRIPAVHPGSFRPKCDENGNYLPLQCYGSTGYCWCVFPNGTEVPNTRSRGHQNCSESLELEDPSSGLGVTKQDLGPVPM
Mcl-1 protein, sequence (Q07820 whole entry): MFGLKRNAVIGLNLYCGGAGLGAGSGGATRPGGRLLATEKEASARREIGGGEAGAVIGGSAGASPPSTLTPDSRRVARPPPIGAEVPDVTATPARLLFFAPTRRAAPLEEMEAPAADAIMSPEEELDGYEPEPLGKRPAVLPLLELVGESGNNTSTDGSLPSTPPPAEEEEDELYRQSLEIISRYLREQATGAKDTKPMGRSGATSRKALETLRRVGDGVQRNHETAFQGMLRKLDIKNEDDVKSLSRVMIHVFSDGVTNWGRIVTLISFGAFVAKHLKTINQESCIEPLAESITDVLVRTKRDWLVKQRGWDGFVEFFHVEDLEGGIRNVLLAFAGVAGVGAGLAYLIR

Cc1c(-c2c(-c3ccc(F)cc3)sc3ncnc(OC(Cc4ccccc4OCc4ccnc(-c5ccc(CP(=O)(O)O)cc5)n4)C(=O)O)c23)ccc(OCCN2CCNCC2)c1Cl [C4, (2R)-2-[(5Sa)-5-[3-chloro-2-methyl-4-(2-piperazin-1-ylethoxy)phenyl]-6-(4-fluorophenyl)thieno[2,3-d]pyrimidin-4-yl]oxy-3-[2-[[2-[4-(phosphonomethyl)phenyl]pyrimidin-4-yl]methoxy]phenyl]propanoic acid]
IC50 [1]: 3210 nM | IC50 [2]: 2.6 nM

COc1ccccc1-c1nccc(COc2ccccc2C[C@@H](Oc2ncnc3sc(-c4ccc(F)cc4)c(-c4ccc(OCCN5CC[N+](C)(Cc6ccc(NC(=O)[C@H](CCCNC(N)=O)NC(=O)[C@@H](NC(=O)CCOCCN7C(=O)C=CC7=O)C(C)C)cc6COCc6cn(CCOCCOCCOCCOCCOCCOCCOCCOCCOCCOCCOCCOCCC(=O)O)nn6)CC5)c(Cl)c4C)c23)C(=O)O)n1 [L33-P1]
IC50 [3]: 0.62 nM | EOL-1 Amax [3, 8]: 66.96 | IC50 [4]: 2.58 nM | NOMO-1 Amax [4, 8]: 58.95 | IC50 [5]: 6.72 nM | MONO-MAC-1 Amax [5]: 89.18

CC#Cc1sc2ncnc(O[C@H](Cc3ccccc3OCc3ccnc(-c4ccccc4OC)n3)C(=O)O)c2c1-c1ccc(OCCN2CCN(C)CC2)c(Cl)c1CC [C7, (2R)-2-[(5Sa)-5-[3-chloro-2-ethyl-4-[2-(4-methylpiperazin-1-yl)ethoxy]phenyl]-6-prop-1-ynyl-thieno[2,3-d]pyrimidin-4-yl]oxy-3-[2-[[2-(2-methoxyphenyl)pyrimidin-4-yl]methoxy]phenyl]propanoic Acid]
IC50 [1]: 1.88 nM | IC50 [2]: 2.6 nM

COCCOCCOCCOCCOCCOCCOCCOCCOCCOCCOCCOCCOCCOCCOCCOCCOCCOCCOCCOCCOCCOCCOCCOCCn1cc(COCc2cc(NC(=O)[C@H](CCCNC(N)=O)NC(=O)[C@@H](NC(=O)CCOCCN3C(=O)C=CC3=O)C(C)C)ccc2C[N+]2(C)CCN(CCOc3ccc(-c4c(-c5ccc(F)cc5)sc5ncnc(O[C@H](Cc6ccccc6OCc6ccnc(-c7ccccc7OC)n6)C(=O)O)c45)c(C)c3Cl)CC2)nn1 [L5-P1]
IC50 [3]: 1.02 nM | EOL-1 Amax [3, 8]: 75.06 | IC50 [4]: 2.22 nM | NOMO-1 Amax [4, 8]: 55.58 | IC50 [5]: 7.95 nM | MONO-MAC-1 Amax [5]: 84.9

COCCOCCOCCOCCOCCOCCOCCOCCOCCOCCOCCOCCC(=O)N(C)Cc1cc(NC(=O)[C@H](CCCNC(N)=O)NC(=O)[C@@H](NC(=O)CCOCCN2C(=O)C=CC2=O)C(C)C)ccc1C[N+]1(C)CCN(CCOc2ccc(-c3c(-c4ccc(F)cc4)sc4ncnc(O[C@H](Cc5ccccc5OCc5ccnc(-c6ccccc6OC)n5)C(=O)O)c34)c(C)c2Cl)CC1 [L32-P1]
EOL-1 Amax [3, 8]: 125 | IC50 [3, 9]: 0.16 nM | NOMO-1 Amax [4, 8]: 62.58 | IC50 [4, 10]: 1.5 nM | IC50 [5]: 6.72 nM | MONO-MAC-1 Amax [5]: 97.57

COCCOCCOCCOCCOCCOCCOCCOCCOCCOCCOCCOCCOCCOCCOCCOCCOCCOCCOCCOCCOCCOCCOCCOCCC(=O)N(C)Cc1cc(NC(=O)[C@H](CCCNC(N)=O)NC(=O)[C@@H](NC(=O)CCOCCN2C(=O)C=CC2=O)C(C)C)ccc1C[N+]1(C)CCN(CCOc2ccc(-c3c(-c4ccc(F)cc4)sc4ncnc(O[C@H](Cc5ccccc5OCc5ccnc(-c6ccccc6OC)n5)C(=O)O)c34)c(C)c2Cl)CC1 [L30-P1]
IC50 [3]: 0.251 nM | EOL-1 Amax [3, 8]: 197.6 | IC50 [4]: 1.62 nM | NOMO-1 Amax [4, 8]: 78.95 | IC50 [5]: 5.45 nM | MONO-MAC-1 Amax [5]: 86.78

Cc1c(-c2c(-c3ccc(F)cc3)sc3ncnc(O[C@H](Cc4ccccc4OCc4ccnn4CC(F)(F)F)C(=O)O)c23)ccc(OCCN2CCN(C)CC2)c1Cl (atropisomer, axis not shown) [C12, (2R)-2-{[(5Sa)-5-{3-chloro-2-methyl-4-[2-(4-methylpiperazin-1-yl)ethoxy]phenyl}-6-(4-fluorophenyl)thieno[2,3-d]pyrimidin-4-yl]oxy}-3-(2-{[1-(2,2,2-trifluoroethyl)-1H-pyrazol-5-yl]methoxy}phenyl)propanoic Acid]
IC50 [2]: 5.9 nM

COc1ccccc1-c1nccc(COc2ccccc2C[C@@H](Oc2ncnc3sc(-c4ccc(F)cc4)c(-c4ccc(OCCN5CC[N+](C)(Cc6ccc(NC(=O)[C@H](CCCNC(N)=O)NC(=O)[C@@H](NC(=O)CCOCCN7C(=O)C=CC7=O)C(C)C)cc6CN(C)C(=O)OC[C@H](NC(=O)CS(=O)(=O)O)C(=O)O)CC5)c(Cl)c4C)c23)C(=O)O)n1 [L77-P1]
IC50 [3]: 0.383 nM | EOL-1 Amax [3, 8]: 102.6 | IC50 [4]: 3.19 nM | NOMO-1 Amax [4, 8]: 48.53 | IC50 [5]: 0.987 nM | MONO-MAC-1 Amax [5]: 108.2

Cc1c(-c2c(-c3ccc(F)cc3)sc3ncnc(O[C@H](Cc4ccccc4OCc4ccnc(-c5ccccc5CO)n4)C(=O)O)c23)ccc(OCCN2CCN(C)CC2)c1Cl [C6, (2R)-2-{[(5Sa)-5-{3-chloro-2-methyl-4-[2-(4-methylpiperazin-1-yl)ethoxy]phenyl}-6-(4-fluorophenyl)thieno[2,3-d]pyrimidin-4-yl]oxy}-3-[2-({2-[2-(hydroxymethyl)phenyl]pyrimidin-4-yl}methoxy)phenyl]propanoic acid]
IC50 [2]: 1.18 nM

COCCOCCOCCOCCOCCOCCOCCOCCOCCOCCOCCOCCOCCOCCOCCOCCC(=O)N(C)Cc1cc(NC(=O)[C@H](CCCNC(N)=O)NC(=O)[C@@H](NC(=O)CCOCCN2C(=O)C=CC2=O)C(C)C)ccc1C[N+]1(C)CCN(CCOc2ccc(-c3c(-c4ccc(F)cc4)sc4ncnc(O[C@H](Cc5ccccc5OCc5ccnc(-c6ccccc6OC)n5)C(=O)O)c34)c(C)c2Cl)CC1 [L31-P1]
IC50 [3]: 0.466 nM | EOL-1 Amax [3, 8]: 83.98 | IC50 [4]: 1.2 nM | NOMO-1 Amax [4, 8]: 73.4 | IC50 [5]: 3.96 nM | MONO-MAC-1 Amax [5]: 110.3

COCCOCCOCCOCCOCCOCCOCCOCCOCCOCCOCCOCCOCCOCCOCCOCCn1cc(COCc2cc(NC(=O)[C@H](CCCNC(N)=O)NC(=O)[C@@H](NC(=O)CCOCCN3C(=O)C=CC3=O)C(C)C)ccc2C[N+]2(C)CCN(CCOc3ccc(-c4c(-c5ccc(F)cc5)sc5ncnc(O[C@H](Cc6ccccc6OCc6ccnc(-c7ccccc7OC)n6)C(=O)O)c45)c(C)c3Cl)CC2)nn1 [L34-P1]
EOL-1 Amax [3, 8]: 70.92 | IC50 [3, 9]: 0.736 nM | NOMO-1 Amax [4, 8]: 66.95 | IC50 [4, 10]: 2.96 nM | IC50 [5]: 6.28 nM | MONO-MAC-1 Amax [5]: 104.4

B1: milatuzumab (antibody, V domains shown)
VH: QVQLQQSGSELKKPGASVKVSCKASGYTFTNYGVNWIKQAPGQGLQWMGWINPNTGEPTFDDDFKGRFAFSLDTSVSTAYLQISSLKADDTAVYFCSRSRGKNEAWFAYWGQGTLVTVSS
VL: DIQLTQSPLSLPVTLGQPASISCRSSQSLVHRNGNTYLHWFQQRPGQSPRLLIYTVSNRFSGVPDRFSGSGSGTDFTLKISRVEAEDVGVYFCSQSSHVPPTFGAGTRLEIK
notes: also called hLL1; WT IgG
Kd [6]: 4.9 nM | koff [6]: 0.00051 s⁻¹ | kon [6]: 100000 M⁻¹ s⁻¹ | Kd [7]: 16 nM | koff [7]: 0.00088 s⁻¹ | kon [7]: 56000 M⁻¹ s⁻¹

B2: Hcmil x LCmil_NQ (antibody, V domains shown)
VH: B1 VH
VL: B1 VL with G34Q
notes: Tested as IgG; also called hLL1 heavy chain with hLL1 (NQ) light chain
Kd [6]: 3.4 nM | koff [6]: 0.00033 s⁻¹ | kon [6]: 96000 M⁻¹ s⁻¹ | Kd [7]: 26 nM | koff [7]: 0.00077 s⁻¹ | kon [7]: 30000 M⁻¹ s⁻¹

B3: Mil_HCx hzVk1a (antibody, V domains shown)
VH: B1 VH
VL: DIVMTQTPLSLPVTPGEPASISCRSSQSLVHRNGNTYLHWYLQKPGQSPQLLIYTVSNRFSGVPDRFSGSGSGTDFTLKISRVEAEDVGVYFCSQSSHVPPTFGQGTKLEIK
notes: Tested as IgG; also called hLL1 heavy chain with hzLL1-Vk1a light chain
Kd [6]: 0.85 nM | koff [6]: 0.00018 s⁻¹ | kon [6]: 210000 M⁻¹ s⁻¹ | Kd [7]: 5.7 nM | koff [7]: 0.00058 s⁻¹ | kon [7]: 100000 M⁻¹ s⁻¹

B4: Mil_HCx hzVk1b (antibody, V domains shown)
VH: B1 VH
VL: B1 VL with I2V, Q3V, L4M, F41Y, A105Q, R108K
notes: Tested as IgG; also called hLL1 heavy chain with hzLL1-Vk1b light chain
Kd [6]: 0.72 nM | koff [6]: 0.00017 s⁻¹ | kon [6]: 230000 M⁻¹ s⁻¹ | Kd [7]: 5.1 nM | koff [7]: 0.00058 s⁻¹ | kon [7]: 110000 M⁻¹ s⁻¹

B5: VHmil x VK1aNQ (antibody, V domains shown)
VH: B1 VH
VL: B3 VL with G34Q
notes: Tested as IgG; also called VHmil × VK1aNQ; hLL1 heavy chain with hzLL1-Vk1a (NQ) light chain
Kd [6]: 0.91 nM | koff [6]: 0.00018 s⁻¹ | kon [6]: 200000 M⁻¹ s⁻¹ | Kd [7]: 5.9 nM | koff [7]: 0.00062 s⁻¹ | kon [7]: 100000 M⁻¹ s⁻¹

B6: VHmil x VK1bNQ (antibody, V domains shown)
VH: B1 VH
VL: B1 VL with I2V, Q3V, L4M, G34Q, F41Y, A105Q, R108K
notes: Tested as IgG; also called VHmil × VK1bNQ; hLL1 heavy chain with hzLL1-Vk1b (NQ) light chain
Kd [6]: 0.76 nM | koff [6]: 0.00016 s⁻¹ | kon [6]: 220000 M⁻¹ s⁻¹ | Kd [7]: 5.3 nM | koff [7]: 0.00058 s⁻¹ | kon [7]: 110000 M⁻¹ s⁻¹
